Data reported in PubChem BioAssay (NCI).
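1) Cells in 96-well plates. 2) Compound, 48 h, 5 concentrations. 3) Linear interpolation between surrounding doses. 4) Unreached endpoint = highest concentration. Here, GI50 denotes the concentration required for 50% inhibition of growth. TGI marks complete inhibition of growth.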

Legend:
Test in all cases: NCI tumour cell line growth inhibition, 48 h
SF-268 CNS = test system: SF-268 CNS
RPMI-8226 leukemia = test system: RPMI-8226 leukemia
CCRF-CEM leukemia = test system: CCRF-CEM leukemia
HT29 colon = test system: HT29 colon
A549 NSCLC = test system: A549 NSCLC
HCC-2998 colon = test system: HCC-2998 colon
HCT-15 colon = test system: HCT-15 colon
TK-10 renal = test system: TK-10 renal
OVCAR-3 ovarian = test system: OVCAR-3 ovarian
UACC-62 melanoma = test system: UACC-62 melanoma
SNB-19 CNS = test system: SNB-19 CNS
MALME-3M melanoma = test system: MALME-3M melanoma

SMILES | TGI (SF-268 CNS) | TGI (RPMI-8226 leukemia) | TGI (CCRF-CEM leukemia) | TGI (HT29 colon) | TGI (A549 NSCLC) | TGI (HCC-2998 colon) | TGI (HCT-15 colon) | TGI (TK-10 renal) | TGI (OVCAR-3 ovarian) | TGI (UACC-62 melanoma) | TGI (SNB-19 CNS) | TGI (MALME-3M melanoma) | GI50 (RPMI-8226 leukemia)
O=C1C(NCCc2cc(Br)c(O)c(Br)c2)=CC(=O)c2ncccc21 | 40.3 µM | 23.2 µM | 23.5 µM | > 30.6 µM | 9.89 µM | 26 µM | 31.9 µM | 73 µM | 6.26 µM | 3.51 µM | 27.5 µM | 2.84 µM | 
C1=CCN(c2ccccc2)CC1 | > 100 µM | > 100 µM | > 100 µM | 87.3 µM | > 100 µM | > 100 µM | 47.1 µM | > 100 µM | 61.2 µM | > 100 µM | > 100 µM | 46.8 µM | 
C[N+](C)(C)CC1Cc2ccccc2C1=O (stereo unspecified) | > 10 µM | > 6.86 µM | 4.22 µM | > 10 µM | > 10 µM | > 10 µM | > 10 µM | > 10 µM | > 10 µM | > 10 µM | > 10 µM | 4.53 µM | 
COc1ccc2c(OC)c3ccoc3nc2c1O | > 100 µM | > 100 µM | > 100 µM | > 100 µM | > 100 µM | > 100 µM | > 100 µM | > 100 µM | > 100 µM | > 100 µM | > 100 µM | > 100 µM | 
O=C(CCN(CCO)CCO)Nc1ccc2c(c1)C(=O)c1ccc(NC(=O)CCN(CCO)CCO)cc1C2=O | 60.6 µM | > 100 µM | 39.5 µM | > 100 µM | > 100 µM | 8.52 µM | 19.8 µM | > 100 µM | 51.3 µM | 27.8 µM | 86.3 µM | 27.9 µM | 
Cc1ccc(S(=O)(=O)N(c2ccccc2F)C2CCCCC2O)cc1 (stereo unspecified) | > 100 µM | > 100 µM | > 100 µM | > 100 µM | > 100 µM | > 100 µM | > 100 µM | > 100 µM | 66.9 µM | > 100 µM | > 100 µM | > 100 µM | 
O=C(O)CCC(=O)Nc1ccc2c(c1)S(=O)(=O)N(CC(=O)O)C2=O |  | > 100 µM | > 100 µM | > 100 µM | > 100 µM | > 100 µM | > 100 µM | > 100 µM | > 100 µM | > 100 µM | > 100 µM | > 100 µM | 
COC(=O)n1c(=O)nc2c3c(ncn21)Oc1c(c(-c2ccccc2)nn1-c1ccccc1)C3c1ccc(Cl)cc1 (stereo unspecified) |  | 4.07 µM | 3.27 µM | 2.9 µM | 3.15 µM | 2.72 µM | 2.95 µM | 3.37 µM | 2.72 µM | 3.6 µM | 3.13 µM | 2.21 µM | 
O=c1nc2n(CCO)c(-c3ccccc3)c(-c3ccccc3)nc-2c(=O)[nH]1 | > 100 µM | > 100 µM | > 100 µM | > 100 µM | > 100 µM | > 100 µM | > 100 µM | > 100 µM | > 100 µM | > 100 µM | > 100 µM | > 100 µM | 
CC(=O)OCC(OC(C)=O)C(OC(C)=O)C(/C=N/N(C(C)=O)S(=O)(=O)c1ccc(/C=C2\NC(=O)NC2=O)cc1)OC(C)=O (stereo unspecified) | > 100 µM | > 100 µM | > 100 µM | > 100 µM | > 100 µM | > 100 µM | > 100 µM | > 100 µM | > 100 µM | > 100 µM | > 100 µM | > 100 µM | 0.583 µM
COc1ccccc1NC(=O)C(C#N)=C(SC)SC | > 100 µM | > 100 µM | > 100 µM | > 100 µM | > 100 µM | > 100 µM | > 100 µM | > 100 µM | > 100 µM | > 100 µM | > 100 µM | > 100 µM | 
Cn1c(=O)nc2n(CCO)c(-c3ccccc3)c(-c3ccccc3)nc-2c1=O | > 100 µM | > 100 µM | > 100 µM | > 100 µM | > 100 µM | > 100 µM | > 100 µM | > 100 µM | > 100 µM | > 100 µM | > 100 µM | > 100 µM | 
CCOc1ccc(C2c3[nH]c4ccccc4c3CCN2C(=O)c2cccs2)cc1 (stereo unspecified) | > 100 µM | > 100 µM | > 100 µM | > 100 µM | > 100 µM | > 100 µM | > 100 µM | > 100 µM | > 100 µM | > 100 µM | > 100 µM | > 100 µM | 
CCCCOC(=O)/C(CC(=O)C=C(C)C)=N\NS(=O)(=O)c1ccc(C)cc1 | > 100 µM | > 100 µM | > 100 µM | > 100 µM | > 100 µM | > 100 µM | > 100 µM | > 100 µM | > 100 µM | > 100 µM | > 100 µM | > 100 µM | 
CSc1nc(=S)[nH]c2n[nH]c(C)c12 | > 100 µM | > 100 µM | > 100 µM | > 100 µM | > 100 µM | > 100 µM | > 100 µM | > 100 µM | > 100 µM | > 100 µM | > 100 µM | > 100 µM | 
CC(=O)Nc1c(C)cc(OCC(=O)O)cc1C | > 100 µM | > 100 µM | > 100 µM | > 100 µM | > 100 µM | > 100 µM | > 100 µM | > 100 µM | > 100 µM | > 100 µM | > 100 µM | > 100 µM | 
CC[C@@]1(O)C(=O)OCc2c1c(Cl)c1n(c2=O)Cc2cc3ccccc3nc2-1 | 67.7 µM | > 100 µM | > 29 µM | > 100 µM | > 63.2 µM | 80.6 µM | > 81.6 µM | > 79.5 µM | 22.1 µM | 3.38 µM | 56.7 µM | 42.1 µM | 
CC(=O)OC1[C@H]2c3cc4c(cc3CN3CCC(C[C@@H]1OC(C)=O)C23)OCO4 (stereo partly specified) | > 75 µM | > 75 µM | > 75 µM | > 75 µM | > 75 µM | > 75 µM | > 75 µM | > 75 µM | > 75 µM | > 75 µM | > 75 µM | > 75 µM | 
CCN(CC)CCCCC1CCN(CC(=O)N2c3ccccc3NC(=O)c3ccccc32)CC1 | > 100 µM | > 100 µM | > 100 µM | > 100 µM | > 100 µM | > 100 µM |  | > 100 µM | > 100 µM | > 100 µM | > 100 µM | > 100 µM | 
